Assays:
T47D cells = experiment: Combination of ABT-263 or ABT-199 with proteasome inhibitors, T47D cells with reduced PSMD2; format: cell-based, human; conditions: T47D cells with reduced PSMD2, 72 hours
Description: FIG. 18: Plots showing effect of various concentrations of ABT-263 (upper panels) or ABT-199 (lower panels) in combination with various concentrations of ixazomib un viability of T47D cells with reduced expression of PSMD2 (KB) (right panels) or control cells (left panels). Fold viability refers to the number of viable cells of the indicated type (PSMD2 KD or control cells) after culture in the presence of the test compounds (ixazomib +ABT-263 or ixazomib +ABT-199) divided by the number of viable cells of that type after culture in the absence of the test compounds. The concentrations of ABT-263 or ABT-199 tested are shown in the legend on the right side of each panel. If no concentration is listed, the compound was absent. Fold viability of control cells cultured in the presence of ixazomib alone (i.e., in the absence ABT-263 or ABT-199) is also shown in the panels showing effect of ixazomib +ABT-263 or ixazomib +ABT-199 on PSMD2 KD cells. […]
FIGS. 21A-21C: (FIG. 21A) Plot showing synergy of ABT-263 with ixazomib in T47D cells with reduced expression of PSMD2. […] The y-axis on each plot is the calculated EC50 in micromoles for either ixazomib or bortezomib in the presence of sublethal doses of ABT-263 or A.BT-199 as indicated. Compounds were added to the cells at the same time and cell viability was measured 72 hours later.

[1] = target: T1, cysteine desulfurase (NFS1-ISD11-Acp)2 (SDA) (Homo sapiens, UniProt Q9Y697); experiment: Cysteine desulfurase assay (DTT as the reductant); format: biochemical
T1 construct: made in house
T1 sequence (Q9Y697 56-457): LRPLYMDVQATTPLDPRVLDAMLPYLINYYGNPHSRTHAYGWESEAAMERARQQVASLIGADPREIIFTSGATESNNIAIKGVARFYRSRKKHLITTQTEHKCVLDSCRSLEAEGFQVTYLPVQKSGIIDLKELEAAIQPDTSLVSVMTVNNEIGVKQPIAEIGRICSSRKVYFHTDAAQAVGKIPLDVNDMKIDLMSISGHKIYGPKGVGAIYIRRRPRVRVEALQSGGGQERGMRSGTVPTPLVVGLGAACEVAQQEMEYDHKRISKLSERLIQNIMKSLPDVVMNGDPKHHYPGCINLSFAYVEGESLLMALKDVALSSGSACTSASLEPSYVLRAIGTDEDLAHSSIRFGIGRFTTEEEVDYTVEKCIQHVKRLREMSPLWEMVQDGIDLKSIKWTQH
T1 sequence (P0A6A8 2-78, further chain): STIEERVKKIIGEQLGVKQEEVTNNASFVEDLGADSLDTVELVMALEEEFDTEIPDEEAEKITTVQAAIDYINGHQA
T1 sequence (Q9HD34 whole entry, further chain): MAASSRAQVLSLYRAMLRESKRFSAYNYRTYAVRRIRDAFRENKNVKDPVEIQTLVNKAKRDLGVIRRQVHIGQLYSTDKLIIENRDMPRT
Description: Fe—S clusters are generated from sulfur extracted from cysteine by the iron sulfur-cluster (ISC) core complex (NFS1-ISD11-Acp-ISCU)2 and iron. A reductant (FDX1 or FDX2) is required for Fc-S cluster biosynthesis (Lill and Muhlenhoff, 2006; Py and Barras, 2010) (FIG. 53A). To investigate the effect of elesclomol on mitochondrial Fe—S cluster biosynthesis, we utilized in vitro Fe—S cluster assembly assays. […] As further confirmation, we examined the effect of elesclomol on electron transfer from reduced FDX1 to the ISC core complex upon the addition of cysteine.
Cysteine desulfurase assay—The protein samples used in the nisteine desulfurase assay and Fe—S cluster assembly experiments were prepared in an anaerobic chamber (Coy Laboratory) with samples buffer-exchanged extensively prior to the experiments with anaerobic buffer containing 20 mM HEPES at pH 7.6 and 150 mM NaCl (HN buffer). The reaction volumes in all the experiments were kept to […]. […]
The cysteine desulfurase assay reactions (300 μL in HN buffer) contained 10 μM SDA. […] The quenched reaction was incubated for 15 min at room temperature, and then the absorbance at 670 nm was measured and used to estimate the amount of sulfide by comparison to a standard curve obtained from known concentrations of Na2S.

| Structure (SMILES) | combination effect with bortezomib (T47D cells) | combination effect with ixazomib (T47D cells) | effect on cysteine desulfurase activity [1] |
| --- | --- | --- | --- |
| CC1(C)CCC(c2ccc(Cl)cc2)=C(CN2CCN(c3ccc(C(=O)NS(=O)(=O)c4ccc(N[C@H](CCN5CCOCC5)CSc5ccccc5)c(S(=O)(=O)C(F)(F)F)c4)cc3)CC2)C1 [ABT-263, navitoclax] | synergy | synergy |  |
| CN(NC(=O)CC(=O)NN(C)C(=S)c1ccccc1)C(=S)c1ccccc1 [elesclomol] |  |  | no inhibitory effect |

From US20180353445A1, “METHODS AND COMPOSITIONS RELATING TO PROTEASOME INHIBITOR RESISTANCE” (Whitehead Institute for Biomedical Research, priority 2017, published 2018)
